From paper PMC9330635, “Halogenated Pyrrolopyrimidines with Low MIC on Staphylococcus aureus and Synergistic Effects with an Antimicrobial Peptide” (Antibiotics, 2022)
Converted amounts (≈) assume the structure as drawn. Like-named read-outs stand apart in the source and are kept apart here.

Key:
E. coli TMPK [1] = biological target: T1, E. coli TMPK (Escherichia coli, UniProt P0A720); design: method as in doi:10.1002/slct.202103796; conditions: previous study; read-out: IC50 against E. coli TMPK; cited from earlier work
T1 construct: purchased ProFoldin TMK100KE

human EGFR = biological target: T2, human EGFR (Homo sapiens, UniProt P00533); assay: Enzymatic EGFR (ErbB1) inhibition, Z'-LYTE; format: biochemical; conditions: for inhibition at 0.1 µM: 100 nM compound, ATP equal to KM; for IC50: average of 2 titration curves, ATP equal to apparent KM, read-out: IC50 towards EGFR
T2 construct: purchased Invitrogen (ThermoFisher), assay service
Description: The compounds were supplied in a 10 mM DMSO solution, and enzymatic EGFR (ErbB1) inhibition potency was determined by Invitrogen (ThermoFisher) using their Z’-LYTE® assay technology. The compounds were tested for their inhibitory activity at 100 nM in duplicates. The IC50 values that were reported for 1 and 5 are based on the average of 2 titration curves (20 data points), and were calculated from activity data with a four-parameter logistic model using SigmaPlot (Windows Version 12.0 from Systat Software, Inc., Palo Alto, CA, USA). Unless stated otherwise, the ATP concentration that was used was equal to apparent KM.

E. coli (MG1655) = assay: MIC by broth microdilution, E. coli; format: cell-based, Escherichia coli; conditions: for MIC: Escherichia coli, E. coli MG1655, broth microdilution
Description: (§1) In this study, we have, therefore, altered our strategy and used minimal inhibitory concentration assays to identify and improve antibacterial agents. A total of 10 pyrrolopyrimidines with variation of the 4-amino group were assayed for their MIC in E. coli (MG1655) and S. aureus (ATCC29213) using the broth microdilution method. Subsequently, the compounds were also counter-screened for their inhibition of human EGFR.
(§2) The MIC of compound 1–21 towards Escherichia coli (MG1655) and Staphylococcus aureus (ATCC29213) was determined following the standards that were recommended by the Clinical and Laboratory Standards Institute (CLSI) for the broth microdilution method. Briefly, the bacterial suspensions were adjusted to 0.5 McFarland standard (~1 × 10^8 colony forming units (CFU)/mL) and diluted 1:200 in Cation-Adjusted Mueller-Hinton Broth (CAMHB, […], […]). The suspension was subsequently added to polypropylene microtiter plates (100 µL/well, ~5 × 10^4 CFU/well) that were already prepared with different concentrations of the various halogenated fused pyrimidines (11 µL/well, two-fold serial dilutions). The plates were incubated at 37 °C overnight before inspection for visible growth and determination of the MIC values.

S. aureus (ATCC29213) = assay: MIC by broth microdilution, S. aureus; format: cell-based, Staphylococcus aureus; conditions: Staphylococcus aureus
Description: as §1, §2

S. aureus = assay: MIC towards S. aureus in combination with the peptide betatide; format: cell-based, Staphylococcus aureus; conditions: betatide 8 mg/L (half its MIC)
Description: The concentration of betatide was 8 mg/L, which corresponds to half the MIC concentration.
as §2

[2] = system: panel of 50 human kinases (EGFR most inhibited); assay: Kinase panel, Z'-LYTE, 50 human kinases; format: biochemical
Description: As the starting point of this study was the EGFR inhibitor PKI-166 (1), there is an obvious risk of kinase off-target effects for the bromo derivative 5. Therefore, we profiled 5 towards a panel of 50 human kinases. […] Based on our previous experience, it is assumed that the EGFR inhibiting activity of 5 is too low to cause in vivo effects.
The compounds were supplied in a 10 mM DMSO solution, and enzymatic kinase inhibition potency was determined by ThermoFisher (Invitrogen, Waltham, MA, USA) using their Z’-LYTE® assay technology, at 500 nM in duplicates. The ATP concentration that was used was equal to Km, except when this service was not provided, and other concentrations had to be used.

human TMPK = biological target: T3, human TMPK (Homo sapiens, UniProt P23919); assay: Human TMPK assay (ProFoldin kit); format: biochemical; conditions: enzymatic; read-out: IC50 towards human TMPK
T3 construct: purchased ProFoldin HTMK500KE
T3 sequence (P23919 1-212): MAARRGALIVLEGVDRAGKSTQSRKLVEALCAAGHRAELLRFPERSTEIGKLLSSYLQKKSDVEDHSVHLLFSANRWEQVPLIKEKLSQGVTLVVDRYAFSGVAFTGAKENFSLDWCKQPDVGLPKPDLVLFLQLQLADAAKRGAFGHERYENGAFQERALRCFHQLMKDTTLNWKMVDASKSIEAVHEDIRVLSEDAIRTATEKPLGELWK
Description: (§3) The inhibition of EcTMPK was determined by Profoldin using the E. coli Thymidylate Kinase Assay Kit Plus (ProFoldin, Catalog No. TMK100KE, Hudson, MA, USA), where dTMP was phosphorylated by ATP that was catalyzed by TMPK. The assay was run in 96-well black plates at 36 °C. The formation of ADP was measured by adding a fluorescent dye and measuring the fluorescence emission at 535 nm after excitation at 485 nm. The readout was corrected for emission from the assay cocktail and DMSO. An ADP control assay was also performed to correct for possible interference with ADP detection. Single-point inhibitions were measured at 8.3 µM inhibitor concentrations. The IC50-values were determined from a similar assay, where 2-fold dilution series from […] were used. The assay towards the human enzyme was run similarly but using the Human Thymidylate Kinase Assay Kit Plus-500 (Catalog Number: HTMK500KE, ProFoldin, Hudson, MA, USA).

E. coli TMPK [3] = biological target: T1, E. coli TMPK; assay: E. coli TMPK assay (ProFoldin kit); format: biochemical; conditions: enzymatic; read-out: IC50 towards E. coli TMPK
Description: as §3

[4] = ATCC29213, S. aureus, single agent (Table 3), read-out: Single Comp. MIC
[5] = S. aureus ATCC29213, broth microdilution, read-out: S. aureus MIC

T2 sequence (P00533 25-1210): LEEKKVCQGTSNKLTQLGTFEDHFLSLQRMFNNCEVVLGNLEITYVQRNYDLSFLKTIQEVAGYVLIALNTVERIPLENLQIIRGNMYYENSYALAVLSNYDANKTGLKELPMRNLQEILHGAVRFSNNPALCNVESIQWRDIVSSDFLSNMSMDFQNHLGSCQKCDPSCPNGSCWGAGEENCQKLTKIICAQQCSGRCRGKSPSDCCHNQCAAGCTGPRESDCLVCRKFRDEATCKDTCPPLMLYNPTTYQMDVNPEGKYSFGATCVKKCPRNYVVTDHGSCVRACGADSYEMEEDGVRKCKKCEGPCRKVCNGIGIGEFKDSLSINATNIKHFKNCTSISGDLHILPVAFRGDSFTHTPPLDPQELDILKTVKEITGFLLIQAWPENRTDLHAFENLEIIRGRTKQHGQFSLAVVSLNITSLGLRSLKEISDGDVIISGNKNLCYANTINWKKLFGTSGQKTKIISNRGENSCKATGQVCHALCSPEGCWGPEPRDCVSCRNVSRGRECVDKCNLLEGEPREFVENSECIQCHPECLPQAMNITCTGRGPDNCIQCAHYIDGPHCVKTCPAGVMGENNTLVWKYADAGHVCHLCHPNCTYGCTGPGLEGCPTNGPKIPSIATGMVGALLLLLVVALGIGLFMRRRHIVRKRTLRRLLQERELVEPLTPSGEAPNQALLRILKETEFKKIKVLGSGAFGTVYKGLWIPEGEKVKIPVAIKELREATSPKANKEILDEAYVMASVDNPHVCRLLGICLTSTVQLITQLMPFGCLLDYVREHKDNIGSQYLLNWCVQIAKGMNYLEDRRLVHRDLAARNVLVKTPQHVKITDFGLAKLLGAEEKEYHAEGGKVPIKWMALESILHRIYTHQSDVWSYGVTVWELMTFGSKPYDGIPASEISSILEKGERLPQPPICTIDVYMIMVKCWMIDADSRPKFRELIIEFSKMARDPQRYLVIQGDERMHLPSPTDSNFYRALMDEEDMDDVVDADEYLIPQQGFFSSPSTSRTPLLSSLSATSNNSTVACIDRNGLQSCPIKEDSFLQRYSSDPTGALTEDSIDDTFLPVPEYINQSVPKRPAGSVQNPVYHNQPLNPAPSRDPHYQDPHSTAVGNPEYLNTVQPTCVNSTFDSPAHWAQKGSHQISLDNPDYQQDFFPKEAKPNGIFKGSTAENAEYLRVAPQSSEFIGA
T1 sequence (P0A720 whole entry): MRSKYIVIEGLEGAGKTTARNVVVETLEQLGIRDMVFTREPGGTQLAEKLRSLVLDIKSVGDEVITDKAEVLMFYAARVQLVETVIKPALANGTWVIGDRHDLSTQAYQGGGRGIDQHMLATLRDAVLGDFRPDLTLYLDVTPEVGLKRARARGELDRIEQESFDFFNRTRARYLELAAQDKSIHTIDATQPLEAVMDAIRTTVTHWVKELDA

Compound | IC50 (E. coli TMPK [1]) | inhibition at 0.1 µM (human EGFR) | IC50 (human EGFR) | MIC (E. coli (MG1655)) | Activity towards E. coli in culture (in words) (E. coli (MG1655); culture, MIC assay) | MIC (S. aureus (ATCC29213); [4]) | MIC (S. aureus (ATCC29213); [5]) | Combination with Betatide MIC (S. aureus) | EGFR inhibition in kinase panel ([2]; 500 nM test concentration) | Inhibition of all the other kinases of the panel ([2]; 500 nM, 50 human kinases, other than EGFR) | IC50 (human TMPK) | IC50 (E. coli TMPK [3])
C[C@@H](Nc1ncnc2[nH]c(-c3ccc(O)cc3)cc12)c1ccccc1 [Compound 1, (R)-4-(4-((1-Phenylethyl)amino)-7H-pyrrolo[2,3-d]pyrimidin-6-yl)phenol, reference compound] | 15 µM | 100% | < 0.001 µM | > 128 µg/mL | did not possess any activity | 64 µg/mL (≈ 194 µM) | 64 µg/mL (≈ 194 µM) | 8 µg/mL | – | – | – | –
C[C@@H](Nc1ncnc2[nH]c(-c3ccc(O)cc3)cc12)c1ccc(Br)cc1 [Compound 5, (R)-4-(4-((1-(4-Bromophenyl)ethyl)amino)-7H-pyrrolo[2,3-d]pyrimidin-6-yl)phenol] | – | 81% | 0.025 µM | > 128 µg/mL | – | 8 µg/mL (≈ 19.5 µM) | 8 µg/mL (≈ 19.5 µM) | 1 µg/mL | 91% | very low inhibition | > 100 µM | 5 µM
